One series deals with Cultured rat SCG neurons. Conditions: for effect on proNGF induced neuronal apoptosis (FIG. 1): 10 μM compound, 5 ng/ml proNGF, rat SCG neurons 7 DIV. The method, then:
(A) Neuronal apoptosis was assessed morphologically by DAPI and TuJ1 double staining and (B) quantitated as percentage of SCG neuron apoptosis. […] Error bars represent S.E.M.
A recent collaborative study assessed the expression and biological actions of proNGF following seizure induced injury to central neurons. […] (A) Neuronal apoptosis was assessed morphologically by DAPI and TuJ1 double staining and (B) quantitated as percentage of SCG neuron apoptosis. […] Error bars represent S.E.M.

The conditions of series [1]: cited from earlier work.
The conditions of series [2]: human, in vivo; cited from earlier work.
For another series, the system named is dopaminergic neurons. Conditions: one report; cited from earlier work.
For series [3] the following is noted: rat, in vivo, sc, 100 mg/kg.
The conditions of series [4]: human, in vivo, cited from earlier work.
The conditions of series [5]: mouse, in vivo; cited from earlier work.
The conditions of series [6]: in vivo; cited from earlier work.
For series [7] the following is noted: monkey, in vivo; cited from earlier work.

Like-named read-outs stand apart in the source and are kept apart here.

On to `N[C@@H](Cc1ccc(O)c(O)c1)C(=O)O` [Levodopa], for which the “effect on proNGF induced neuronal apoptosis (FIG. 1)” value in the series with Cultured rat SCG neurons was “blockade of proNGF induced neuronal apoptosis”. For the same molecule, the “inhibition of apoptosis, dose dependence” value in the series with Cultured rat SCG neurons (proNGF-induced SCG neuronal cell death) is “dose dependent inhibition of apoptosis”. The “toxicity profile in human” value in series [1] (human) is “excellent toxicity profiles in human”. Also, the “CSF level of major metabolite homovanillic acid” value in series [2] is 0.8 to 1 µM. The “L-dopa concentrations required for toxicity to dopaminergic neurons” value in the series with dopaminergic neurons was 100 to 500 µM.
As to `O=C([O-])CC(O)(CC(=O)[O-])C(=O)[O-].[Li+].[Li+].[Li+]` [Lithium Citrate], in the series with Cultured rat SCG neurons, the “inhibition of apoptosis, dose dependence” value is listed as “dose dependent inhibition of apoptosis” and the “effect on proNGF induced neuronal apoptosis (FIG. 1)” value was “blockade of proNGF induced neuronal apoptosis”. In addition, the “toxicity profile in human” value in series [1] (in vivo) was “excellent toxicity profiles in human”.
Take `O=C([O-])[O-].[Li+].[Li+]` [Lithium carbonate]: the “concentration at which efficacy is demonstrated” value with Cultured rat SCG neurons came to 10 µM. In series [3], this molecule gave a peak serum concentration of 3 mM and a trough serum concentration of 300 µM. The serum concentration in [4] (po) is 0.6 to 0.8 mmol. The major toxicities result in series [4] is “reversible renal impairment and anemia”. Also, the clinical toxicity entry in series [5] is recorded as “no clinical toxicity”. Further, the “brain concentration relative to serum concentration” value in series [6] is “approximately half”. Moreover, the “brain concentration relative to serum concentration” value in [7] is reported as “approximately half”.
For `CC[C@H](C)C(=O)O[C@H]1C[C@@H](C)C=C2C=C[C@H](C)[C@H](CC[C@@H]3C[C@@H](O)CC(=O)O3)[C@H]21` [Lovastatin], in the series with Cultured rat SCG neurons, the “inhibition of apoptosis, dose dependence” value is given as “dose dependent inhibition of apoptosis” and the “toxicity in SCG neuron assay” value was “without toxicity”. For the same molecule, the “toxicity profile in human” value in series [1] (in vivo) was “excellent toxicity profiles in human”.

(Values after patent US20110189310A1, “SMALL MOLECULE MODULATORS OF PRONGF UPTAKE” (priority 2008, published 2011).)
